Data published in patent US10981932B2, “Macrocyclic indole derivatives” (Bayer Aktiengesellschaft, priority 2016, dated 2021).
Values joined by “and” are separate entries in the source; they are usually repeats but may differ in a detail not shown here. Equal values may be shown once. Where a name gives a salt, the structure may show the parent alone. Read-outs that look alike come from different tables or passages of the source.

Key:
[1] = tested on: SUDHL10; experiment: Induction of cytotoxicity (CellTiter-Glo, 5 h), SUDHL10
[2] = tested on: SUDHL5; experiment: Anti-proliferative effect (CellTiter-Glo, 72 h), SUDHL5; type: cell-based; settings: SUDHL5 cells, antiproliferation, median, read-out: Antiproli SUDHL5 [M] (median)
Summary of the method: (§1)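 CellTiter-Glo luminescence readout of viability, taken on a time-zero plate at day 0 and on treated plates after 72 h incubation at 37 °C in a humidified incubator. Reagent incubation 10 min before reading.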

[3] = tested on: SUDHL10; experiment: Anti-proliferative effect (CellTiter-Glo, 72 h), SUDHL10; type: cell-based; settings: SUDHL10 cells, antiproliferation, median, read-out: Antiproli SUDHL10 [M] (median)
Summary of the method: as §1

[4] = tested on: SUDHL5; experiment: Induction of cytotoxicity (CellTiter-Glo, 5 h), SUDHL5
[5] = tested on: SUDHL5; experiment: Induction of caspase-3/7 activity (Caspase-Glo 3/7), SUDHL5; type: cell-based; settings: caspase-3/7 induction, SUDHL5 cells, 3 h treatment, median
Summary of the method: (§2)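 Caspase-Glo 3/7 luminescence measured after 3 h compound exposure at 37 °C in SUDHL10 and SUDHL5 cells. EC50 values come from background-corrected signals, with curve bottom set to 1 and plateau set to maximal induction by the reference compound.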

[6] = target: MCL-1 (Homo sapiens, UniProt Q07820); experiment: Protein-protein interaction assay MCL-1/Noxa BH3 peptide (MCL-1 assay), TR-FRET; type: binding; settings: MBP-MCL-1 / Noxa BH3-derived peptide, median
Sequence of MCL-1 (Q07820 whole entry): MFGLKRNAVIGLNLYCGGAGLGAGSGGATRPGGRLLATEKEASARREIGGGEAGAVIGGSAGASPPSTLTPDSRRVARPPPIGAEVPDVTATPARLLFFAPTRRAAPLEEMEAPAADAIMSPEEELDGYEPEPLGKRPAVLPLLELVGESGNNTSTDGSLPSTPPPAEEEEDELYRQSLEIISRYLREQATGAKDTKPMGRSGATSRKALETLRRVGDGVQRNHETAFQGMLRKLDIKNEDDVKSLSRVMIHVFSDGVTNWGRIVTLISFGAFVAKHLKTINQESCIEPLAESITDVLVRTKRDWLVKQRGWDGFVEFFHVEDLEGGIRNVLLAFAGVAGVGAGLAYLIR
Summary of the method: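 MBP-MCL-1 (1 nM final) was preincubated 10 min at 22 °C with compounds (11 concentrations, 0.1 nM–20 μM, duplicates) in Tris pH 7 buffer with NaCl, KF, Tween-20, DTT and BGG. After 1 h at 22 °C in the dark plus overnight at 4 °C, anti-MBP Eu-cryptate/streptavidin-XL665 TR-FRET was read; IC50 came from a 4-parameter fit.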

[7] = tested on: A2780; experiment: Anti-proliferative effect (CellTiter-Glo, 72 h), A2780; type: cell-based; settings: A2780 cells, median, read-out: IC50 antiproliferation assay A2780 [M] (median)
Summary of the method: as §1

[8] = tested on: SUDHL10; experiment: Induction of caspase-3/7 activity (Caspase-Glo 3/7), SUDHL10; type: cell-based; settings: caspase-3/7 induction, SUDHL10 cells, 3 h treatment, median
Summary of the method: as §2

[9] = read-out: Cytotox SUDHL10 [M] (median), SUDHL10 cells, cytotoxicity induction, CellTiter-Glo, 5 h incubation, median
[10] = read-out: Cytotox SUDHL5 [M] (median), SUDHL5 cells, cytotoxicity induction, CellTiter-Glo, 5 h incubation, median
[11] = Homo sapiens, SU-DHL10, 5 h, read-out: Cytotox SUDHL10 [M] (median), SUDHL10 cells, cytotoxicity induction, CellTiter-Glo, 5 h incubation, median
[12] = Homo sapiens, SU-DHL-5, 72 h, 72 h incubation
[13] = Homo sapiens, SU-DHL-5, 5 h, read-out: Cytotox SUDHL5 [M] (median), SUDHL5 cells, cytotoxicity induction, CellTiter-Glo, 5 h incubation, median

Row | SMILES | IC50 ([2]; Homo sapiens, SU-DHL-5, 72 h, 72 h) | IC50 ([3]; Homo sapiens, SU-DHL10, 72 h, 72 h) | EC50 ([5]; Homo sapiens, SU-DHL-5, 3 h) | IC50 [6] | IC50 ([7]; Homo sapiens, A2780, 72 h) | EC50 ([8]; Homo sapiens, SU-DHL10, 3 h) | IC50 ([2]; 72 h incubation) | IC50 ([3]; 72 h incubation) | EC50 [5] | IC50 [7] | EC50 [8] | IC50 [2, 12] | IC50 ([3]; Homo sapiens, SU-DHL10, 72 h, 72 h incubation) | IC50 ([1]; Homo sapiens, SU-DHL10, 5 h, read-out: Cytotox SUDHL10 [M] (median), SUDHL10 cells, cytotoxicity induction, CellTiter-Glo, 5 h, median) | IC50 ([4]; Homo sapiens, SU-DHL-5, 5 h, read-out: Cytotox SUDHL5 [M] (median), SUDHL5 cells, cytotoxicity induction, CellTiter-Glo, 5 h, median) | IC50 [1, 9] | IC50 [4, 10] | IC50 [1, 11] | IC50 [4, 13]
1 | Cn1nc(COC(=O)NCC(F)(F)F)c2c1COCCCCn1c(C(=O)O)c(CCCOc3cccc4ccccc34)c3cccc-2c31 (single isomer, unassigned; enantiomer 1) [Example 343, 1-methyl-7-[3-(naphthalen-1-yloxy)propyl]-3-({[(2,2,2-trifluoroethyl)carbamoyl]oxy}methyl)-1,10,11,12,13,15-hexahydropyrazolo[4′,3′:9,10][1,6]oxazacycloundecino[8,7,6-hi]indole-8-carboxylic Acid (Enantiomer 1)] | 1.92e-06 M | 1.11e-06 M | 29.7 µM | 0.325 µM | 1.9e-05 M | > 33 µM | – | – | – | – | – | – | – | > 3.3e-05 M | > 3.3e-05 M | – | – | – | –
2 | Cn1ccnc1COCc1nn(C)c2c1-c1cccc3c(CCCOc4cccc5ccccc45)c(C(=O)O)n(c13)CCCCOC2 (single isomer, unassigned) [Example 233, (−)-1-methyl-3-{[(1-methyl-1H-imidazol-2-yl)methoxy]methyl}-7-[3-(naphthalen-1-yloxy)propyl]-1,10,11,12,13,15-hexahydropyrazolo[4′,3′:9,10][1,6]oxazacycloundecino[8,7,6-hi]indole-8-carboxylic Acid] | – | – | – | 0.242 µM | – | – | 9.23e-06 M | 1.85e-05 M | 25.3 µM | > 3.3e-05 M | > 33 µM | – | – | – | – | > 3.3e-05 M | 2.15e-05 M | – | –
3 | Cc1nn(C)c2c1-c1cccc3c(CCCOc4cccc5ccccc45)c(C(=O)O)n(c13)CCCOC2 (racemic) [Example 043, (rac)-9,11-dimethyl-1-[3-(naphthalen-1-yloxy)propyl]-5,6,8,9-tetrahydro-4H-pyrazolo[4′,3′:8,9][(1,5]oxazecino[7,6,5-hi]indole-2-carboxylic Acid] | – | – | 18.7 µM | 0.0127 µM | > 3.3e-05 M | > 33 µM | – | – | – | 2.6e-05 M | – | 1.05e-05 M | 4.93e-06 M | – | – | – | – | > 3.3e-05 M | 1.79e-05 M

The next lines start with results.

Row | IC50 ([2]; Homo sapiens, SU-DHL-5, 72 h, 72 h) | IC50 ([3]; Homo sapiens, SU-DHL10, 72 h, 72 h) | EC50 ([5]; Homo sapiens, SU-DHL-5, 3 h) | IC50 [6] | IC50 ([7]; Homo sapiens, A2780, 72 h) | EC50 ([8]; Homo sapiens, SU-DHL10, 3 h) | IC50 ([2]; 72 h incubation) | IC50 ([3]; 72 h incubation) | EC50 [5] | IC50 [7] | EC50 [8] | IC50 [2, 12] | IC50 ([3]; Homo sapiens, SU-DHL10, 72 h, 72 h incubation) | SMILES | IC50 ([1]; Homo sapiens, SU-DHL10, 5 h, read-out: Cytotox SUDHL10 [M] (median), SUDHL10 cells, cytotoxicity induction, CellTiter-Glo, 5 h, median) | IC50 ([4]; Homo sapiens, SU-DHL-5, 5 h, read-out: Cytotox SUDHL5 [M] (median), SUDHL5 cells, cytotoxicity induction, CellTiter-Glo, 5 h, median) | IC50 [1, 9] | IC50 [4, 10] | IC50 [1, 11] | IC50 [4, 13]
4 | – | – | 12.8 µM | 0.0181 µM | > 3.3e-05 M | > 33 µM | – | > 3.3e-05 M and 2.21e-05 M | – | – | 30 µM | 9.37e-06 M | – | COCc1nn(C)c2c1-c1cccc3c(CCCOc4cccc5ccccc45)c(C(=O)O)n(c13)CCCCCOC2 (single isomer, unassigned; enantiomer 1) [Example 178, 3-(methoxymethyl)-1-methyl-7-[3-(naphthalen-1-yloxy)propyl]-1,11,12,13,14,16-hexahydro-1 OH-pyrazolo[3′,4′:3,4][1,7]oxazacyclododecino[5,6,7-h]indole-8-carboxylic acid-N-ethylethanamine Salt (Enantiomer 1)] | – | – | – | – | > 3.3e-05 M | 1.3e-05 M
5 | – | – | – | 0.12 µM | – | – | 3.11e-05 M | 1.64e-05 M | > 33 µM | 2.58e-05 M | > 33 µM | – | – | Cc1c2c(nn1C1CC1)COCCCCn1c(C(=O)O)c(CCCOc3cccc4ccccc34)c3cccc-2c31 (single isomer, unassigned; enantiomer 2) [Example 094, 2-cyclopropyl-3-methyl-7-[3-(naphthalen-1-yloxy)propyl]-2,10,11,12,13,15-hexahydropyrazolo[4′,3′:9,10][1,6]oxazacycloundecino[8,7,6-hi]indole-8-carboxylic acid-N-ethylethanamine Salt (Enantiomer 2)] | – | – | > 3.3e-05 M | > 3.3e-05 M | – | –
6 | – | – | – | 0.0728 µM | – | – | 1.72e-05 M | 7e-06 M | > 33 µM | 1.36e-05 M | > 33 µM | – | – | COCCn1nc2c(c1C1CC1)-c1cccc3c(CCCOc4cccc5ccccc45)c(C(=O)O)n(c13)CCCCOC2 (single isomer, unassigned; enantiomer 2) [Example 086, 3-Cyclopropyl-2-(2-methoxyethyl)-7-[3-(naphthalen-1-yloxy)propyl]-2,10,11,12,13,15-hexahydropyrazolo[4′3′:9,10][1,6]oxazacycloundecino[8,7,6-hi]indole-carboxylic acid-N-ethylethanamine Salt (Enantiomer 2)] | – | – | > 3.3e-05 M | 3.15e-05 M | – | –
